How the values were obtained:
Type in all cases: in vivo
[1] = test system: Botrytis cinerea; assay: Botrytis test (bean)/protective; conditions: protective, 3 days after inoculation
Protocol: After the spray coating has dried on, 2 small pieces-of agar covered with Botrytis cinerea are placed on each leaf. The inoculated plants are placed in a darkened humid chamber at 20° C.
3 days after the inoculation, the size of the infected spots on the leaves is evaluated.

[2] = test system: Leptosphaeria nodorum; assay: Leptosphaeria nodorum test (wheat)/protective; conditions: protective, 10 days after inoculation
Protocol: Solvent: 100 parts by weight of dimethylformamide
Emulsifier: 0.25 parts by weight of alkylaryl polyglycol ether
(§1) To produce a suitable preparation of active compound, 1-part by weight of active compound is mixed with the stated amounts of solvent and emulsifier, and the concentrate is diluted with water to the desired concentration.
(§2) To test for protective activity, young plants are sprayed with the preparation of active compound until dew-moist. After the spray coating has dried on, the plants are sprayed with a spore suspension of Leptosphaeria nodorum. The plants remain for 48 hours in an incubation cabin at 20° C. and 100% relative atmospheric humidity.
(§3) The plants are placed in a greenhouse at a temperature of 15° C. and a relative atmospheric humidity of about 80%.
(§4) Evaluation is effected 10 days after the inoculation.

[3] = test system: Erysiphe graminis f.sp. hordei; assay: Erysiphe test (barley)/protective; conditions: protective, 50 g/ha, 7 days after inoculation
Protocol: (§5) Solvent: 10 parts by weight N-methyl-pyrrolidon
(§6) Emulsifier: 0.6 parts by weight alkylarylpoly-glycolether
To produce a suitable preparation of active compound, 1 part by weight of active compound is mixed with the stated amounts of solvent and emulsifier, and the concentrate is diluted with water to the desired concentration.
To test for protective activity, young plants are sprayed with the preparation of active compound until dew-moist. After the spray coating has dried on, the plants are dusted with spores of Erysiphe graminis f.sp. hordei.
The plants are placed in a greenhouse at a temperature of about 20° C. and a relative atmospheric humidty of about 80%, in order to promote the development of powdery mildew pustules.
(§7) Evaluation is carried out 7 days after the inoculation.

[4] = test system: Erysiphe graminis f. sp. hordei; assay: Erysiphe test (wheat) protective; conditions: 7 days after inoculation
Protocol: Solvent: 10 parts by weight N-methyl-pyrrolidone
as §6, §1
To test for protective activity, young plants are dusted with spores of Erysiphe graminis f. sp. hordei. […]
The plants are placed in a greenhouse at a temperature of about 20° C. and a relative atmospheric humidity of about 80%, in order to promote the development of powdery mildew pustules.
as §7

[5] = test system: Erysiphe graminis f.sp.hordei; assay: Erysiphe-test (wheat)/curative; conditions: curative, 200 g/ha, 7 days after inoculation
Protocol: Solvent: 10 parts by weight of N-methyl-pyrrolidone Emulsifier: 0.6 parts by weight of alkylaryl-polglycolether To produce a suitable preparation of active compound, 1-part by weight of active compound is mixed with the stated amounts of solvent and emulsifier, and the concentrate is diluted with water to the desired concentration. To test for curative activity, young plants are dusted with spores of Erysiphe graminis f.sp.hordei. 48 hours after the inoculation, the plants are sprayed with the preparation of active compound until dew-moist. The plants are placed in a greenhouse at a temperature of about 20° C. and a relative atmospheric humidity of about 80%, in order to promote the development of powdery mildew pustules. Evaluation is carried out 7 days after the inoculation.

[6] = test system: Leptosphaeria nodorum; assay: Leptosphaeria nodorum test (wheat)/curative; conditions: curative, 400 g/ha, 10 days after inoculation
Protocol: Solvent: 10 parts by weight of dimethyl-formamide
Emulsifier: 0.6 parts by weight of alkylaryl polyglycol ether
To produce a suitable preparation of active compound, 1-parts by weight of active compound is mixed with the stated amounts of solvent and emulsifier, and the concentrate is diluted with water to the desired concentration.
as §2, with “curative” for “protective”
as §3, §4

[7] = test system: Pyrenophora teres; assay: Pyrenophora teres test (barley)/protective; conditions: protective, 25 g/ha, 7 days after inoculation
Protocol: as §5, §6, §1
To test for protective activity, young plants are sprayed with the preparation of active compound until dew moist. After the spray coating has dried off, the plants are sprayed with a conidia suspension of Pyrenophora teres. The plants then remain in an incubation cabin at 20° C. and 100% relative atmospheric humidity for 48 hours.
The plants are placed in a greenhouse at a temperature of about 20° C. and a relative atmospheric humidity of about […].
Evaluation is carried out 7 days after inoculation.

## CN(C)S(=O)(=O)N(SC(F)(Cl)Cl)c1ccccc1 [Dichlofluanid, dichlofluanid]
[1]; 100 ppm
  Degree of effectiveness in % of the untreated control: 32%

## Cc1ccc(N(SC(F)(Cl)Cl)S(=O)(=O)N(C)C)cc1 [Tolylfluanid, tolylfluanid]
[1]; 50 ppm
  Degree of effectiveness in % of the untreated control: 32%

## O=[N+]([O-])c1cc(C(F)(F)F)c(Cl)c([N+](=O)[O-])c1Nc1ncc(C(F)(F)F)cc1Cl [Fluazinam, fluazinam]
[1]; 5 ppm
  Degree of effectiveness in % of the untreated control: 20%

## COC(=O)Nc1nc2ccccc2[nH]1 [Carbendazim, methyl benzimidazole-2-carbamate]
[1]; 5 ppm
  Degree of effectiveness in % of the untreated control: 52%

## Cc1cc(C)nc(Nc2ccccc2)n1 [Pyrimethanil, pyrimethanil]
[1]; 10 ppm
  Degree of effectiveness in % of the untreated control: 0%

## CC1(C(=O)Nc2ccc(O)c(Cl)c2Cl)CCCCC1 [(I)]
[1]; 5 ppm
  Degree of effectiveness in % of the untreated control: 51%
[2]; concentration not given
  Degree of effectiveness in % of the untreated control: 0%
[3]
  Degree of effectiveness in % of the untreated control: 0%
[4]; 25 g/ha
  Degree of effectiveness in % of the untreated control: 30%
[4]; 200 g/ha
  Degree of effectiveness in % of the untreated control: 85%
[5]
  Degree of effectiveness in % of the untreated control: 30%
[6]
  Degree of activity in % of the untreated control: 25%
[7]
  Degree of effectiveness in % of the untreated control: 33%

## CO/C=C(\C(=O)OC)c1ccccc1Oc1cc(Oc2ccccc2C#N)ncn1 [(ηa)]
[3]
  Degree of effectiveness in % of the untreated control: 15%
[4]; 200 g/ha
  Degree of effectiveness in % of the untreated control: 79%

## CO/C=C(\C(=O)OC)c1ccccc1Oc1cc(Oc2ccccc2C#N)ncn1 [(ηb)]
[5]
  Degree of effectiveness in % of the untreated control: 75%

## CC(C)(C)C(O)(CCc1ccc(Cl)cc1)Cn1cncn1 (stereo not drawn) [Tebuconazole]
[2]; spray liquor 25 ppm
  Degree of effectiveness in % of the untreated control: 75%

## N#Cc1c(Cl)c(Cl)c(Cl)c(C#N)c1Cl [Chlorothalonil, tetrachloro-isophthalo-dinitrile]
[1]; 200 ppm
  Degree of effectiveness in % of the untreated control: 37%

## CC12CC1(C)C(=O)N(c1cc(Cl)cc(Cl)c1)C2=O (stereo not drawn) [Procymidone, procymidone]
[1]; 50 ppm
  Degree of effectiveness in % of the untreated control: 44%

## O=C1c2ccccc2C(=O)N1SC(Cl)(Cl)Cl [Phaltan, phaltan]
[1]; 50 ppm
  Degree of effectiveness in % of the untreated control: 0%

## CO/N=C(\C(=O)OC)c1ccccc1COc1ccccc1C [(ηb)]
[3]
  Degree of effectiveness in % of the untreated control: 85%
[4]; 25 g/ha
  Degree of effectiveness in % of the untreated control: 85%
[6]
  Degree of activity in % of the untreated control: 49%
[7]
  Degree of effectiveness in % of the untreated control: 33%
